Source: BigSolDB 2.1

Conditions: in water

Q: What does the source list for `O=S(=O)([O-])c1cccc2ccccc12.[Na+]`?
A: solubility (mole fraction) (278.15 K): 0.0107; solubility (mole fraction) (283.15 K): 0.0109; solubility (mole fraction) (288.15 K): 0.0113; solubility (mole fraction) (293.15 K): 0.0119; solubility (mole fraction) (298.15 K): 0.0126; solubility (mole fraction) (303.15 K): 0.0134; solubility (mole fraction) (308.15 K): 0.0141; solubility (mole fraction) (313.15 K): 0.0152; solubility (mole fraction) (318.15 K): 0.0169; solubility (mole fraction) (323.15 K): 0.0192
